Measurements from patent US6482410B1, “Cytotactin derivatives that stimulate attachment and neurite outgrowth, and methods of making same” (The Scripps Research Institute, priority 1994, dated 2002).
One block for each molecule: values may come before it.

Legend:
[1] = test system: chicken fibroblast cell line SL29; assay: Cell attachment assay, fibroblasts on protein-coated solid support; type: cell-based; conditions: CT coated at 20 μg/ml, binding fragments at 0.75 μM, non-binding at three times that, 1 hour
Experimental: In the cell attachment assays, a single cell suspension was allowed to settle for a fixed period of time onto a solid support that has been coated with the different CT-derived proteins to be tested for cell attachment (Friedlander, et al., J. Cell Biol. 107: 2329-2340 (1988)). After removing the unbound and loosely bound cells by washing, the attachment and morphology of those cells remaining on the dish were analyzed.
Solid supports, consisting of a circular array of CT or CT:GST fusion proteins bound to a dish, were prepared as follows for the cell attachment assay.
For the initial study, non tissue-culture treated polystyrene plates (Falcon 1008) were spotted with 2 μl of a 0.5 to 1.5 μM solution of CT in PBS for 30 minutes to coat a specific area on the dish with CT. CT was isolated from chicken brain or from fibroblast culture supernatant as described in Crossin, PNAS 88: 11403-11407 (1991) and Hoffman et al., J. Cell Biol. 106: 519-532 (1988). CT was placed in a circular array near the center of the dish and incubated at 37° C. for 30 minutes. After CT had adsorbed to the dish, the central portion of the dish was washed once with 250 μl of 20% (w/v) BSA in PBS. Non-specific binding sites on the dish were then blocked with 250 μl of 20% (w/v) BSA in PBS by incubation for 2 to 3 hours at room temperature.
For the subsequent study with the CT:GST fusion proteins, non tissue-culture treated polystyrene plates (Falcon 1008) were spotted with 2 μl of a 0.5 to 1.5 μM solution of CT:GST fusion protein in PBS as prepared in Example 5.A.2 or GST in PBS for 30 minutes to coat a specific area on the dish with CT:GST fusion protein or GST. The proteins to be tested were placed in a circular array near the center of the dish and incubated at 37° C. for 30 minutes. After the proteins adsorbed to the dish, the central portion of the dish was washed once with 250 μl of 20% (w/v) BSA in PBS. Non-specific binding sites on the dish were then blocked with 250 μl of 20% (w/v) BSA in PBS by incubation for 2 to 3 hours at room temperature.
The chicken fibroblast cell line SL29 (ATCC CRL 1590) was grown to confluence in Dulbecco's Minimum Essential Medium (DMEM; Gibco-BRL, Gaithersburg, Mass.) with 10% (v/v) fetal calf serum (FCS; Gibco-BRL) with penicillin and streptomycin. The cells were passaged the night prior to the assay and seeded at a density of 1:2. Cells were harvested in calcium, magnesium-free Hank's balanced salt solution (CMF-HBSS, Gibco-BRL) with 20 mM Hepes buffer and 5 mM EDTA. Harvested cells were washed in attachment buffer (CMF-HBSS with 10 mM Hepes, 1 mM CaCl2, 1 mM MgCl2, 0.1 mM MnCl2, and 2% (w/v) bovine serum albumin (BSA)) three times. The number of cells was quantitated by counting the cells in a hemocytometer. The cells were resuspended in attachment buffer to a density of 6×10^5 cells/ml.
Chicken fibroblasts, DRG, and solid supports (dishes) coated with CT for use in the cell attachment assays were prepared as described in Examples 5.A.2-4, respectively. The chicken fibroblasts and DRG at a density of 6×10^5 cells/ml were added to the prepared dishes and incubated at 37° C. in 5% CO2 for 1 hour. The dishes were then washed three times in PBS with gentle swirling to remove unattached cells, fixed in 1% glutaraldehyde in PBS, and viewed by phase contrast microscopy. The number of bound cells was determined using a 10× objective with an eyepiece reticle. The number of cells was determined in four fields for each fusion protein dot as the number of cells bound per […]. CT was tested in triplicate. The number of cells bound for CT was expressed as the average of the twelve measurements±standard deviation […].
CT, coated at a concentration of 20 μg/ml, was used as a solid support for SL29 fibroblast attachment. […] Fragments of CT were generated using the pGEX fusion protein system, as described in Example 1. The cell attachment assay was performed essentially as described above for the cell attachment assay to intact CT. […]

[2] = test system: dorsal root ganglia (DRG) neurons; assay: Two-dimensional neurite outgrowth assay, DRG, 15 hours; type: cell-based, chicken; conditions: 15 hours
Experimental: (§1) Dorsal root ganglia (DRG) cells or forebrain neurons were prepared for the cell attachment assays as follows. DRG from day 6 chicken embryos or forebrains from day 7 chicken embryos were dissected into HBSS. The tissue was pelleted by centrifugation and resuspended in CMF-HBSS and incubated at 37° C. for 10 minutes. The tissue was pelleted again and resuspended in CMF-HBSS containing 0.08% trypsin and allowed to trypsinize for 20 minutes at 37° C. An equal volume of DMEM/F12, 10% FCS, 20 ng/ml nerve growth factor (NGF) (for DRG cells only), 10 μg/ml gentamycin (10% medium) was added, and the tissue was pelleted and resuspended in 2 ml of the 10% medium. The cells were triturated with a fire-polished Pasteur pipette for 15 strokes, and the cells were washed and resuspended in 10 ml of 10% medium. DRG cells were plated in a 10 cm tissue culture dish and incubated for 1 hour at 37° C. in 5% CO2, to allow for attachment of contaminating fibroblasts.
(§2) After replating, the cells were harvested, pelleted and washed three times in DMEM/F12, 1% fetal calf serum (FCS), 20 ng/ml NGF (for DRG cells only), 10 μg/ml gentamycin (1% medium), and the number of cells determined using a hemocytometer. The DRG were resuspended to a density of 6×10^5 cells/ml in attachment buffer. The neurons were resuspended to a density of 2×10^4 cells/ml in 1% medium and added to substrates and placed at 37° C., 5% CO2 for 15 hours.
(§3) After the growth period, the dishes were gently rinsed with PBS to remove unbound cells, fixed with 1% glutaraldehyde, and viewed by phase contrast microscopy. Ten to forty cells were analyzed for each substrate. Cells were judged as neurite-bearing if the length of the processes was greater than one cell diameter. All cells with neurites were photographed with a 20× objective and total neurite length per neurite-bearing cell was derived from the photographic prints. Percentage of neuronal sprouting was calculated from at least six experiments. Neurite length was calculated from at least three experiments.
This extensive neurite outgrowth after 40 hours made quantitation of the percentage of neurite-bearing cells and neurite length difficult. To analyze quantitatively the effect of CT/TN fusion proteins on DRG neurite outgrowth, DRG cells were therefore plated at low density on CT/TN or CT/TN fragments and analyzed after 15 hours in culture for the percentage of cells that sprouted neurites greater than one cell diameter and for the everage neurite length per neuron. These conditions enhanced the number of isolated cells and discouraged the cell-cell interactions and fasciculation that occurred in the long-term cultures.
The proteins used in the neurite outgrowth assays are the same as those used in the cell attachment assays. […] In addition, poly-L-lysine was adsorbed to the solid support. […] Any cells adhering to the solid support were examined for sprouting and neurite length as defined herein.
Proteins used in the neurite outgrowth assays were prepared as described in Example 5.A.2.
Dorsal root ganglia (DRG) from day 6 chicken embryos were prepared as described in Example 5.A.4. For the neurite outgrowth assays, the DRG were resuspended at a density of 2×10^4 cells/ml in 1% medium, added to solid support, and placed at 37° C. in 5% CO2 for 15 hours. After the attachment and growth period, the dishes were gently rinsed with PBS to remove unbound cells, fixed with 1% (v/v) glutaraldehyde, and viewed by phase contrast microscopy. Ten to thirty cells were analyzed for each adsorbed protein spot. Cells were judged as neurite-bearing if the length of the processes were greater than one cell diameter. All cells with neurites were photographed with a 40× objective and the total neurite length per neurite-bearing cell was derived from the prints. The percent of cells that were sprouting and the average neurite length was derived from six and three independent experiments, respectively. […]

[3] = test system: neurons from chick forebrain; assay: CNS neurite outgrowth, forebrain neurons, 7 hours; type: cell-based; conditions: 7 hour growth period
Experimental: as §1, §2, §3
To investigate whether CNS neurons could also extend neurites on CT/TN and CT/TN fragments, neurons from chick forebrain were plated at low density on CT/TN, CT/TN fragments and polylysine, and analyzed for neurite outgrowth after a 7 hour growth period (a time period found to be optimal for stable neurite outgrowth from these cells). The lengths of neurites on substrates that supported sprouting were essentially the same for the forebrain neurons and were therefore not quantitated further.

[4] = target: β1 integrin on chicken SL29 fibroblasts and chick dorsal root ganglion neurons (chicken) (UniProt P07228); assay: cell-based or functional assay
Sequence of UniProt P07228 (P07228 25-803, form in doubt): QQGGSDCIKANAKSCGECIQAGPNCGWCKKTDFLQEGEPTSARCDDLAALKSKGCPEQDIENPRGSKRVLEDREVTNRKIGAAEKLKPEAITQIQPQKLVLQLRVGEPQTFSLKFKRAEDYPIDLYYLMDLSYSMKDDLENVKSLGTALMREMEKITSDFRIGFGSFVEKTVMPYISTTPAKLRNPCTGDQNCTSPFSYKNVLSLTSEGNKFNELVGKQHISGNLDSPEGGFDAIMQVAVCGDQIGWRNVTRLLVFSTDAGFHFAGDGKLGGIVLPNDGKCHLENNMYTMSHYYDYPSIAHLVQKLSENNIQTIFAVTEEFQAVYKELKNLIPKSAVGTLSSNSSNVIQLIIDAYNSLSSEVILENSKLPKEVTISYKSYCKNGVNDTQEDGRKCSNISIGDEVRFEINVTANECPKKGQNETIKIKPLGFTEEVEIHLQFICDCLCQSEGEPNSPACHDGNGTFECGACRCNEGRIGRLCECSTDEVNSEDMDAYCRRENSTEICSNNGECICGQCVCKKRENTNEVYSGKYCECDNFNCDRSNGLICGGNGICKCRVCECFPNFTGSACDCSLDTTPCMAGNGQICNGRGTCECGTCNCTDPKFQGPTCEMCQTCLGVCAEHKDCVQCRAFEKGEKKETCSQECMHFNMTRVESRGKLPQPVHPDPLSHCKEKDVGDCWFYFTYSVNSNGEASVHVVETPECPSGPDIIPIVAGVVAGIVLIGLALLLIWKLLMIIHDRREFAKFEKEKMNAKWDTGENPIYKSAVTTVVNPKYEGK

[5] = target: integrin receptor mediating RGD-dependent, not β1 integrin-mediated attachment of chicken SL29 fibroblasts and DRG cells; assay: cell-based or functional assay
[6] = test system: DRG cells; assay: DRG neurite outgrowth, 40 hour culture, morphology; type: cell-based, chicken; conditions: DRG cells cultured 40 hours
Experimental: In order to assess the effect to the cell binding regions of CT/TN on the outgrowth of neurites from PNS neurons, DRG cells were cultured for 40 hours on popylysine, CTfn3, CTfn6, CTfg, and CTfn3-CTfn6 mixed substrates. The cultures were then fixed and the cell and neurite morphology was analyzed by phase contrast microscopy. The cells were plated on plastic substrates coated with the same concentrations of CTITN and fusion proteins used in the attachment assay.

Molecule: CT: intact cytotactin isolated from chicken brain or fibroblast culture supernatant
SL29 fibroblast attachment to coated substrate (words) [1]: readily attached | SL29 fibroblast attachment to coated substrate (words) ([1]; listed as CT/TN): bound well | percentage of DRG cells that sprouted neurites ([2]; DRG): About 50% | percentage of DRG cells that sprouted neurites ([2]; DRG, listed as CT/TN): 30% | % Sprouting ([2]; Table 4, DRG, neurites greater than one cell diameter): 30 ± 3 % | Neurite Length ([2]; Table 4, DRG, per neurite-bearing cell): 332 ± 177 microns | Percent Sprouting ([2]; Table 5, DRG, six experiments): 30 ± 3 | Neurite Length (in microns) ([2]; Table 5, DRG, three experiments): 332 ± 177 microns | forebrain cell attachment [3]: low level of attachment | forebrain neuron sprouting versus polylysine [3]: did not support sprouting of neurites | % Sprouting ([3]; Table 4, FB (forebrain) neurons): 0%

Molecule: intact cytotactin (CT) isolated from chicken brain or from fibroblast culture supernatant (from UniProt P10039 34-1808) (ligand)
inhibition of SL29 fibroblast attachment to intact CT/TN by GRGDTP (1 mg/ml) [5]: 33% | inhibition of cell attachment to intact CT by soluble GRGDSP (1 mg/ml) [5]: 73% | inhibition of cell attachment to intact CT by soluble GRGDTP (1 mg/ml) [5]: 70%

B1: CTfn3-6: single construct containing fibronectin type III repeats III and VI, SEQ ID NO 29 (protein, listed as Gallus gallus)
chain: LDAPSQIEAKDVTDTTALITWSKPLAEIEGIELTYGPKDVPGDRTTIDLSEDENQYSIGNLRPHTEYEYEVTLISRRGDMESDPAKEVFVTVVGSPKGISFSDITENSARVSWTPPRSRVDSYRVSYVPITGGTPNVVTVDGSKTRTKLVKLVPGVDYNVNIISVKGFEESE
neurite promoting activity on DRG cells ([2]; DRG, low density): significant increase both in the percentage of neurite-bearing cells and in neurite elongation | neurite and cell morphology after 40 hours [6]: much longer and less fasciculated

The next lines start with the values.

inhibition of SL29 fibroblast binding to CTfn5-6 by mAb JG22 [4]: 77%
Molecule: CTfn5-6 fusion protein spanning the fifth and sixth FN type III repeats of chicken cytotactin (from UniProt P08515 1-218)

decrease in DRG cell attachment to CTfg after preincubation with JG22 [4]: 19%
Molecule: CTfg CT:GST fusion protein (fibrinogen domain of chicken cytotactin fused to GST) (from UniProt P10039 1568-1808)
